# Laboratory results: patent publication US20220162192A1 (ESCAPE Bio, Inc., priority 2019, published 2022)
# pIC50: −log10 of the molar value.
# Columns and labels:
# [1] = target: T1, Recombinant wild type LRRK2 protein (Homo sapiens, UniProt Q5S007); assay: LanthaScreen Kinase Activity Assay (TR-FRET), wild type LRRK2; assay type: biochemical; settings: class symbols; 25 μM ATP, 400 nM LRRKtide, 2.9 nM kinase, 60 min at room temperature; read-out: LRRK2 WT IC50
# T1 construct: purchased Life Technologies PR8604B
# Procedure: (§1) LRRK2 kinase activity was measured using a LanthaScreen™ Kinase Activity Assay from ThermoFisher Scientific. Recombinant wild type or G2019S-LRRK2 protein (Life Technologies, PR8604B or PV4881, respectively), was incubated with a fluorescein-labeled peptide substrate called LRRKtide that is based upon ezrin/radixin/moesin (ERM) (Life Technologies, PV4901) in the presence of ATP and serially diluted compound. After an incubation period of 1 hr, the phosphotransferase activity was stopped and a terbium-labelled anti-pERM antibody (Life Technologies, PV4899) was added to detect the phosphorylation of LRRKtide by measuring the time resolved-Forster resonant energy transfer (TR-FRET) signal from the terbium label on the antibody to the fluorescein tag on LRRKtide, expressed as the 520 nm/495 nm emission ratio. Compound-dependent inhibition of the TR-FRET signal was used to generate a concentration-response curve for IC50 determination.
# (§2) The assay was carried out under the following protocol conditions: 1 mM compound in DMSO was serially diluted 1:3, 11 points in DMSO with a Biomek FX and 0.1 μL of the diluted compound was subsequently stamped into the assay plate (384-well format Lumitrac 200, Greiner, 781075) with an Echo Labcyte such that the final compound concentration in the assay was 10 μM to […]. Subsequently, 5 μL of 2× kinase solution (2.9 nM final concentration) was added to the assay plate in assay buffer composed of 50 mM Tris pH 8.5 (Sigma, T6791), 5 mM MgCl2 (Fluka, 63020), 1 mM EGTA (Sigma, E3889), 0.01% BRIJ-35 (Sigma, P1254) and 2 mM DTT. The reaction was started by addition of 2×ATP/LRRKtide solution in assay buffer such that the final concentration was 400 nM LRRKtide and 25 μM ATP. After 60 min incubation at room temperature, the reaction was stopped by addition of […] containing a final concentration of 2 nM anti-pERM antibody and 10 mM EDTA. After a 30 min incubation at RT, the TR-FRET signal was measured on a Wallac 2104 EnVision® multilabel reader at an excitation wavelength of 340 nm and reading emission at 520 nm and 495 nm. The ratio of the 520 nm and 495 nm emission was used to analyze the data.
# [2] = target: T2, Recombinant G2019S-LRRK2 protein (Homo sapiens, UniProt Q5S007, G2019S); assay: LanthaScreen Kinase Activity Assay (TR-FRET), G2019S-LRRK2; assay type: biochemical; settings: class symbols; 25 μM ATP, 400 nM LRRKtide, 2.9 nM kinase, 60 min at room temperature
# T2 construct: purchased Life Technologies PV4881
# Procedure: as §1, §2
# T1 sequence (Q5S007 whole entry): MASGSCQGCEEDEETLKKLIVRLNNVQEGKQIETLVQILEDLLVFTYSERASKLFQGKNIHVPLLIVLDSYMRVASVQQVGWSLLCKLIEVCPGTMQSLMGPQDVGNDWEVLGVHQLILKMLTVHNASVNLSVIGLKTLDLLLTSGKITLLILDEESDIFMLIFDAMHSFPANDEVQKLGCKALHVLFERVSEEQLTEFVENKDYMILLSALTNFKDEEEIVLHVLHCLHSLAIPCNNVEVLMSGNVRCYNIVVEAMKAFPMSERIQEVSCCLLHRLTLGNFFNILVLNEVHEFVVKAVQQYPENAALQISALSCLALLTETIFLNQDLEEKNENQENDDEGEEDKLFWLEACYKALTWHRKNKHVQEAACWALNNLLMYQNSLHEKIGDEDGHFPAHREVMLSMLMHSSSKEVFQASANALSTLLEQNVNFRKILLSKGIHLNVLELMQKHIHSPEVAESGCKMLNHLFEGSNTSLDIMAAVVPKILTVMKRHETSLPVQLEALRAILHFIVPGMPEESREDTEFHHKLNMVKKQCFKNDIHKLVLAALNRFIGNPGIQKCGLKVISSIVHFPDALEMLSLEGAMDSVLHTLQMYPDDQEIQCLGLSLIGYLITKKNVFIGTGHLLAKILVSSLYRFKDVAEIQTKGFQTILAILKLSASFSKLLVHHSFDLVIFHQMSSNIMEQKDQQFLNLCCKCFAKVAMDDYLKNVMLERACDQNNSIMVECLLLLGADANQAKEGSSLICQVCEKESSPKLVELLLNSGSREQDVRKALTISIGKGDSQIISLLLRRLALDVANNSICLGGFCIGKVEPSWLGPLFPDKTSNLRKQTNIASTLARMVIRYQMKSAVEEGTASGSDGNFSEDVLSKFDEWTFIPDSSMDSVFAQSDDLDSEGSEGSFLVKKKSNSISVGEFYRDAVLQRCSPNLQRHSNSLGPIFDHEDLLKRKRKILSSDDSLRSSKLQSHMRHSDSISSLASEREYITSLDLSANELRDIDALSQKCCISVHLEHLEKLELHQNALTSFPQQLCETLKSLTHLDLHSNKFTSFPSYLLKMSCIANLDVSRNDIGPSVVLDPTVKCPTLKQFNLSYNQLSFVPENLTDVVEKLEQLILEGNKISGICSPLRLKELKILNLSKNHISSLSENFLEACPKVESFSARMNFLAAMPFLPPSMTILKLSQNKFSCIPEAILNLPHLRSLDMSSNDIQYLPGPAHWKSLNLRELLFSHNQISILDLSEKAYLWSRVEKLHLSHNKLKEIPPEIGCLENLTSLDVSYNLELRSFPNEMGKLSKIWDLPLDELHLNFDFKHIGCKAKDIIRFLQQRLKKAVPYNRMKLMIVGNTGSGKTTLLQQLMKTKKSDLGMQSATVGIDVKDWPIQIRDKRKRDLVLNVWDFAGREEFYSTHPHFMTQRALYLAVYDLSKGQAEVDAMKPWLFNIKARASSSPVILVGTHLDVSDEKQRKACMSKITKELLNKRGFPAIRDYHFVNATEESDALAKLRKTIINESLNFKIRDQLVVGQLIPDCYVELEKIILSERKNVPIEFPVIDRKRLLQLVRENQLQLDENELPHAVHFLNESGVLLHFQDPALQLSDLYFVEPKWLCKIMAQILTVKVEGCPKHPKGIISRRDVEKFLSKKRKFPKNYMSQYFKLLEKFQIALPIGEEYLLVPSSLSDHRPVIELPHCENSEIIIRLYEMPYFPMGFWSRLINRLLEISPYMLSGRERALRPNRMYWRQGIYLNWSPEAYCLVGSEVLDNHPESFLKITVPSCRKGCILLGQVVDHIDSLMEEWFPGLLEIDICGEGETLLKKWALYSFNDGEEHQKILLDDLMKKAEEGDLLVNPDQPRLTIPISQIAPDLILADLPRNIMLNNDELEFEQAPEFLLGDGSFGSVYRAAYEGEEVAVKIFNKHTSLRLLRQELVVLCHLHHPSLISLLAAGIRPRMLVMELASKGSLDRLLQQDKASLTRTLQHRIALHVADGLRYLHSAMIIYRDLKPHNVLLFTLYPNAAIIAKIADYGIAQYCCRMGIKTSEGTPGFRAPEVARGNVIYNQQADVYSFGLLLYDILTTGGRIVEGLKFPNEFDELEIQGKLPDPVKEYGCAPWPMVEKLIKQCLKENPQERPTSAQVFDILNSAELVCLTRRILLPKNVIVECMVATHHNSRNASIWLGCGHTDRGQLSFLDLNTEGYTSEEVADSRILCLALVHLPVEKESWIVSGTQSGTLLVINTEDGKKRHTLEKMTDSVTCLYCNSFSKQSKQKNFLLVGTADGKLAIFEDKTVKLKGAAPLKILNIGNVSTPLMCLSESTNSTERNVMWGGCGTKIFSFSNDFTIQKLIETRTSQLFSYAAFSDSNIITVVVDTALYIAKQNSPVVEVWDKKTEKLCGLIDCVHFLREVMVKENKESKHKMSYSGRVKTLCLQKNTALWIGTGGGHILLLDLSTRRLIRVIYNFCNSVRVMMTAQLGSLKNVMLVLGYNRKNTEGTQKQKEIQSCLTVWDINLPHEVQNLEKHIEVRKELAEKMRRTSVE
# T2 sequence (Q5S007 whole entry G2019S): as the sequence (Q5S007 whole entry) above, with G2019S counted along it
Compound,pIC50 [1],pIC50 [2]
"Cc1cn2cnnc2c(C)c1C(=O)Nc1ccc2[nH]nc(-c3ccccc3)c2c1 [Example 57, 6,8-Dimethyl-N-(3-phenyl-1H-indazol-5-yl)-[1,2,4]triazolo[4,3-a]pyridine-7-carboxamide]",≥ 7.00,≥ 7.00
"Cc1cc2cnnn2c(C)c1C(=O)Nc1ccc2[nH]nc(-c3ccco3)c2c1 [Example 155, N-(3-(Furan-2-yl)-1H-indazol-5-yl)-5,7-dimethyl-[1,2,3]triazolo[1,5-a]pyridine-6-carboxamide]",≥ 7.00,≥ 7.00
"Cc1ccncc1-c1n[nH]c2ccc(NC(=O)c3c(F)cc4c(cnn4C)c3F)cc12 [Example 38, 4,6-Difluoro-1-methyl-N-(3-(4-methylpyridin-3-yl)-1H-indazol-5-yl)-1H-indazole-5-carboxamide]",5.00 to 6.00,5.00 to 6.00
"Cc1nc2cncn2c(C)c1C(=O)Nc1ccc2[nH]nc(-c3ccoc3)c2c1 [Example 112, N-(3-(Furan-3-yl)-1H-indazol-5-yl)-2,4-dimethylimidazo[1,5-a]pyrimidine-3-carboxamide]",6.00 to 7.00,≥ 7.00
"Cn1cc2c(n1)CCC(C(=O)Nc1ccc3[nH]nc(-c4ccoc4)c3c1)C2 (single isomer, unassigned) [Example 161d]",6.00 to 7.00,≥ 7.00
"O=C(Nc1ccc2[nH]nc(-c3ccoc3)c2c1)c1ccc2nccn2c1 [Example 119, N-(3-(Furan-3-yl)-1H-indazol-5-yl)imidazo[1,2-a]pyridine-6-carboxamide]",6.00 to 7.00,≥ 7.00
"Cc1cc2cnnn2c(C)c1C(=O)Nc1ccc2[nH]nc(Br)c2c1 [Example 45, N-(3-Bromo-1H-indazol-5-yl)-5,7-dimethyl-[1,2,3]triazolo[1,5-a]pyridine-6-carboxamide]",6.00 to 7.00,≥ 7.00
"Cn1nccc1-c1n[nH]c2ccc(NC(=O)c3c(F)cc4c(cnn4C)c3F)cc12 [Example 96, 4,6-Difluoro-1-methyl-N-(3-(1-methyl-1H-pyrazol-5-yl)-1H-indazol-5-yl)-1H-indazole-5-carboxamide]",6.00 to 7.00,≥ 7.00
"Cc1cccc(-c2n[nH]c3ccc(NC(=O)c4c(F)cc5c(cnn5C)c4F)cc23)c1 [Example 76, 4,6-Difluoro-1-methyl-N-(3-(m-tolyl)-1H-indazol-5-yl)-1H-indazole-5-carboxamide]",≥ 7.00,≥ 7.00
"Cc1cc2c(C)nnn2c(C)c1C(=O)Nc1ccc2[nH]nc(C)c2c1 [Example 65, 3,5,7-Trimethyl-N-(3-methyl-1H-indazol-5-yl)-[1,2,3]triazolo[1,5-a]pyridine-6-carboxamide]",5.00 to 6.00,6.00 to 7.00
"O=C(Nc1ccc2[nH]nc(-c3ccccc3)c2c1)c1cc2[nH]ncc2cc1Br [Example 24, 5-Bromo-N-(3-phenyl-1H-indazol-5-yl)-1H-indazole-6-carboxamide]",≥ 7.00,≥ 7.00
"Cn1ncc2cc(C(=O)Nc3ccc4[nH]nc(-c5cnco5)c4c3)ncc21 [Example 167, 1-Methyl-N-(3-(oxazol-5-yl)-1H-indazol-5-yl)-1H-pyrazolo[3,4-c]pyridine-5-carboxamide]",6.00 to 7.00,≥ 7.00
"O=C(Nc1ccc2[nH]nc(-c3ccoc3)c2c1)c1ccc2ncsc2c1 [Example 123, N-(3-(Furan-3-yl)-1H-indazol-5-yl)benzo[d]thiazole-6-carboxamide]",6.00 to 7.00,≥ 7.00
"Cn1ncc2c(F)c(C(=O)Nc3ccc4[nH]nc(-c5cccnc5)c4c3)c(F)cc21 [Example 32, 4,6-Difluoro-1-methyl-N-(3-(pyridin-3-yl)-1H-indazol-5-yl)-1H-indazole-5-carboxamide]",≥ 7.00,≥ 7.00
"O=C(Nc1ccc2[nH]nc(-c3ccoc3)c2c1)c1ccc2ocnc2c1 [Example 126, N-(3-(Furan-3-yl)-1H-indazol-5-yl)benzo[d]oxazole-5-carboxamide]",6.00 to 7.00,≥ 7.00
"Cc1n[nH]c2ccc(NC(=O)c3ccn4cnnc4c3)cc12 [Example 5, N-(3-Methyl-1H-indazol-5-yl)-[1,2,4]triazolo[4,3-a]pyridine-7-carboxamide]",5.00 to 6.00,5.00 to 6.00

Compound,pIC50 [1],pIC50 [2]
"Cn1ncc2c(F)c(C(=O)Nc3cc4c(-c5ccoc5)n[nH]c4cc3F)c(F)cc21 [Example 144, 4,6-Difluoro-N-(6-fluoro-3-(furan-3-yl)-1H-indazol-5-yl)-1-methyl-1H-indazole-5-carboxamide]",≥ 7.00,≥ 7.00
"O=C(Nc1ccc2[nH]nc(-c3ccoc3)c2c1)C1CCc2cncn2C1 (single isomer, unassigned) [Example 173a]",6.00 to 7.00,≥ 7.00
"COc1cncc(-c2n[nH]c3ccc(NC(=O)c4c(F)cc5c(cnn5C)c4F)cc23)c1 [Example 82, 4,6-Difluoro-N-(3-(5-methoxypyridin-3-yl)-1H-indazol-5-yl)-1-methyl-1H-indazole-5-carboxamide]",≥ 7.00,≥ 7.00
"O=C(Nc1ccc2[nH]nc(-c3ccoc3)c2c1)c1ccc2ncoc2c1 [Example 116, N-(3-(furan-3-yl)-1H-indazol-5-yl)benzo[d]oxazole-6-carboxamide]",6.00 to 7.00,≥ 7.00
"Cn1ncc2nc(C(=O)Nc3ccc4[nH]nc(-c5cnco5)c4c3)ccc21 [Example 165, 1-Methyl-N-(3-(oxazol-5-yl)-1H-indazol-5-yl)-1H-pyrazolo[4,3-b]pyridine-5-carboxamide]",6.00 to 7.00,≥ 7.00
"COc1ncccc1-c1n[nH]c2ccc(NC(=O)c3c(F)cc4c(cnn4C)c3F)cc12 [Example 81, 4,6-Difluoro-N-(3-(2-methoxypyridin-3-yl)-1H-indazol-5-yl)-1-methyl-1H-indazole-5-carboxamide]",6.00 to 7.00,≥ 7.00
"Cc1c(C(=O)Nc2ccc3[nH]nc(-c4ccccc4)c3c2)c(Cl)cn2cnnc12 [Example 59, 6-Chloro-8-methyl-N-(3-phenyl-1H-indazol-5-yl)-[1,2,4]triazolo[4,3-a]pyridine-7-carboxamide]",≥ 7.00,≥ 7.00
"Cc1cn2nc(C(=O)Nc3ccc4[nH]nc(-c5ccoc5)c4c3)cc2c(C)n1 [Example 163, N-(3-(Furan-3-yl)-1H-indazol-5-yl)-4,6-dimethylpyrazolo[1,5-a]pyrazine-2-carboxamide]",≥ 7.00,≥ 7.00
"Cn1ncc2c(F)c(C(=O)Nc3ccc4[nH]nc(-c5cocn5)c4c3)c(F)cc21 [Example 136, 4,6-Difluoro-1-methyl-N-(3-(oxazol-4-yl)-1H-indazol-5-yl)-1H-indazole-5-carboxamide]",6.00 to 7.00,≥ 7.00
"Cn1cnc2cc(C(=O)Nc3ccc4[nH]nc(-c5ccoc5)c4c3)ccc21 [Example 132, N-(3-(Furan-3-yl)-1H-indazol-5-yl)-1-methyl-1H-benzo[d]imidazole-5-carboxamide]",6.00 to 7.00,6.00 to 7.00
"Cc1cccc(-c2n[nH]c3ccc(NC(=O)c4c(C)cc5cnnn5c4C)cc23)c1C [Example 47, N-(3-(2,3-Dimethylphenyl)-1H-indazol-5-yl)-5,7-dimethyl-[1,2,3]triazolo[1,5-a]pyridine-6-carboxamide]",5.00 to 6.00,6.00 to 7.00
"Cc1cc2[nH]ncc2cc1C(=O)Nc1ccc2[nH]nc(-c3ccccc3)c2c1 [Example 21, 6-Methyl-N-(3-phenyl-1H-indazol-5-yl)-1H-indazole-5-carboxamide]",≥ 7.00,≥ 7.00
"Cc1cc(-c2n[nH]c3ccc(NC(=O)c4c(F)cc5c(cnn5C)c4F)cc23)ccn1 [Example 37, 4,6-Difluoro-1-methyl-N-(3-(2-methylpyridin-4-yl)-1H-indazol-5-yl)-1H-indazole-5-carboxamide]",≥ 7.00,≥ 7.00
"Cn1ncc2c(F)c(C(=O)Nc3ccc4[nH]nc(-c5ccoc5)c4c3)c(F)cc21 [Example 28, 4,6-Difluoro-N-(3-(furan-3-yl)-1H-indazol-5-yl)-1-methyl-1H-indazole-5-carboxamide]",≥ 7.00,≥ 7.00
"Cn1cnc2ccc(C(=O)Nc3ccc4[nH]nc(-c5ccoc5)c4c3)cc21 [Example 131, N-(3-(Furan-3-yl)-1H-indazol-5-yl)-1-methyl-1H-benzo[d]imidazole-6-carboxamide]",≥ 7.00,≥ 7.00
